In brackets after ≈: the same amount, converted by molar mass. Like-named read-outs stand apart in the source and are kept apart here. Starred links: 1 amine or outer side, 2 acyl side, 3 side chain; linkers in the order of their positions; H or OH if unused. Positions of bridges follow the written chain, without caps; N, C: chain ends. Residues, ends and D or L forms follow the SMILES beside them. *: point of attachment. C20 diacid = O=C(O)CCCCCCCCCCCCCCCCCCC(=O)*; γGlu = O=C(O)[C@H](CCC(=O)[*:2])N[*:1]
Key:
[1] = target: T1, human amylin receptor (amylin 3(a) receptor: human calcitonin receptor + RAMP-3) (Homo sapiens, UniProt O60896+P30988); assay: Assay (II)a functional CRE-luciferase assay, human amylin receptor; type: cell-based; conditions: Table 2; BHK amylin 3(a)-receptor/CRE-luc cells
T1 construct: expressed in transfected cells; host or cells: BHK570
T1 sequence (P30988 25-474): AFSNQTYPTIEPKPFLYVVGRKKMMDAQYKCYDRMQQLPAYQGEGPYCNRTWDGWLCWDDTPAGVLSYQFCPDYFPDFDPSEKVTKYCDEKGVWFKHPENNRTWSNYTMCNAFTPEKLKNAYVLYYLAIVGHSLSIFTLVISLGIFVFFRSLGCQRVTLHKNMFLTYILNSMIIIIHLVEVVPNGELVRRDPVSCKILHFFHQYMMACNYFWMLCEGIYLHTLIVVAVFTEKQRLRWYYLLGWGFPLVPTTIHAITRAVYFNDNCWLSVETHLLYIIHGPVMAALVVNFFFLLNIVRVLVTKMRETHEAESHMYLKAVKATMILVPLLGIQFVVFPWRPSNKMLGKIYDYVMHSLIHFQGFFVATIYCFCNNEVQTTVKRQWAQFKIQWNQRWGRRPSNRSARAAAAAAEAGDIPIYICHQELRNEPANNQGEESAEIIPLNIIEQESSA
T1 sequence (O60896 24-148 partner): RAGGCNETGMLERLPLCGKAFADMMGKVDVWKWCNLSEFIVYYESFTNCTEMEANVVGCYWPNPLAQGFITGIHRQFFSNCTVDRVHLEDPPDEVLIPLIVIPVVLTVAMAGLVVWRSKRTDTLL

[2] = Assay (IV) determination of solubility; type: physicochemical
How it was run: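 Stock ~500 nmol/ml in water; 1:1 with 100 mM buffer, pH 3.0–8.0 (glycylglycine ≤5.0, bistrispropane ≥6.0); 18 h RT; spin; HPLC quantitation of soluble polypeptide.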

[3] = Assay (III) ThT fibrillation assay for physical stability; type: physicochemical; conditions: ThT fibrillation assay
How it was run: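 Freshly prepared formulations, pH-adjusted, with 1 μM ThT; four or eight replicates incubated at 37 °C under 960 rpm orbital shaking. Fluorescence (ex 444/em 485 nm) read every 20 min; […]. Peptide concentration measured by RP-HPLC before and after the run.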

[4] = target: T2, human calcitonin receptor (Homo sapiens, UniProt P30988); assay: Assay (II)a functional CRE-luciferase assay, human calcitonin receptor; type: cell-based; conditions: Table 7; human calcitonin (CTa) receptor
T2 construct: expressed in transfected cells; host or cells: BHK570
T2 sequence (P30988 25-474): T1 sequence (P30988 25-474)

[5] = bistrispropane buffer, pH 6, pH 6.0, read-out: Solubility pH 6.0
[6] = bistrispropane buffer, pH 7, pH 7.0, read-out: Solubility pH 7.0
[7] = bistrispropane buffer, pH 7.5, pH 7.5, read-out: Solubility pH 7.5
[8] = bistrispropane buffer, pH 8, pH 8.0, read-out: Solubility pH 8.0
[9] = glycylglycine buffer, pH 3, pH 3.0, read-out: Solubility pH 3.0
[10] = glycylglycine buffer, pH 4, pH 4.0, 18 hours at room temperature, Table 2, read-out: Solubility pH 4.0
[11] = glycylglycine buffer, pH 4, pH 4.0, read-out: Solubility pH 4.0
[12] = glycylglycine buffer, pH 5, pH 5.0, read-out: Solubility pH 5.0
[13] = bistrispropane buffer, pH 6.5, pH 6.5, read-out: Solubility pH 6.5
[14] = bistrispropane buffer, pH 7, pH 7.0, 18 hours at room temperature, Table 3, read-out: Solubility pH 7.0

SMILES | EC50 [1] | ThT pH 4.0 lag time (h) [3] | EC50 [4] | solubility at 18 h [2, 5] | solubility at 18 h [2, 6] | solubility at 18 h [2, 7] | solubility at 18 h [2, 8] | solubility at 18 h [2, 9] | solubility at 18 h [2, 10] | solubility at 18 h [2, 11] | solubility at 18 h [2, 12] | solubility at 18 h [2, 13] | solubility at 18 h [2, 14] | also measured
CC[C@H](C)[C@H](NC(=O)[C@@H]1CCCN1C(=O)CNC(=O)[C@H](Cc1ccccc1)NC(=O)[C@H](CC(N)=O)NC(=O)[C@H](CC(N)=O)NC(=O)[C@H](CO)NC(=O)[C@H](CO)NC(=O)[C@H](CCCNC(=N)N)NC(=O)[C@H](Cc1c[nH]cn1)NC(=O)[C@H](CC(C)C)NC(=O)[C@H](Cc1ccccc1)NC(=O)[C@H](CCC(=O)O)NC(=O)[C@H](C)NC(=O)[C@H](CC(C)C)NC(=O)[C@H](CCCNC(=N)N)NC(=O)[C@H](CCC(N)=O)NC(=O)[C@@H](NC(=O)[C@H](C)NC(=O)[C@@H]1CSSC[C@H](NC(=O)[C@H](CCC(=O)O)NC(=O)CC[C@H](NC(=O)CCCCCCCCCCCCCCCCCCC(=O)O)C(=O)O)C(=O)N[C@@H](CC(N)=O)C(=O)N[C@@H]([C@@H](C)O)C(=O)N[C@@H](C)C(=O)N[C@@H]([C@@H](C)O)C(=O)N1)[C@@H](C)O)C(=O)N[C@@H](CC(C)C)C(=O)N1CCC[C@H]1C(=O)N1CCC[C@H]1C(=O)N[C@H](C(=O)N[C@@H](CC(N)=O)C(=O)N[C@H](C(=O)NCC(=O)N[C@@H](CO)C(=O)N[C@@H](CC(N)=O)C(=O)N[C@H](C(=O)N[C@@H](Cc1ccc(O)cc1)C(N)=O)[C@@H](C)O)C(C)C)[C@@H](C)O [Example 5, N-alpha-[(S)-4-Carboxy-4-(19-carboxynonadecanoylamino)butyryl]-[Glu1,Glu14,His17,Arg18]-pramlintide] ({C20 diacid-γGlu}-ECNTATCATQRLAEFLHRSSNNFGPILPPTNVGSNTY-NH2; disulfide 2-7 (inferred); C-terminus assumed) | 0.353 nM | 4.4 h | 1.65 nM | – | – | – | – | – | – | – | – | – | – | solubility at 18 h ([2]; pH 3.0, read-out: Solubility pH 3.0): >200 µM; Solubility pH 4.0 (μM) ([2]; pH 4.0, 18 hours at room temperature, Table 2): >200 μM; solubility at 18 h ([2]; pH 4.0, read-out: Solubility pH 4.0): >200 µM; solubility at 18 h ([2]; pH 5.0, read-out: Solubility pH 5.0): 62 µM (≈ 278 µg/mL); solubility at 18 h ([2]; pH 6.0, read-out: Solubility pH 6.0): 164 µM (≈ 734 µg/mL); solubility at 18 h ([2]; pH 6.5, read-out: Solubility pH 6.5): 181 µM (≈ 810 µg/mL); Solubility pH 7.0 (μM) ([2]; pH 7.0, 18 hours at room temperature, Table 3): >200 μM; solubility at 18 h ([2]; pH 7.0, read-out: Solubility pH 7.0): >200 µM; solubility at 18 h ([2]; pH 7.5, read-out: Solubility pH 7.5): >200 µM; solubility at 18 h ([2]; pH 8.0, read-out: Solubility pH 8.0): >200 µM
CC[C@H](C)[C@H](NC(=O)[C@@H]1CCCN1C(=O)CNC(=O)[C@H](Cc1ccccc1)NC(=O)[C@H](CC(N)=O)NC(=O)[C@H](CC(N)=O)NC(=O)[C@H](CO)NC(=O)[C@H](CO)NC(=O)[C@H](Cc1c[nH]cn1)NC(=O)[C@@H](NC(=O)[C@H](CC(C)C)NC(=O)[C@H](Cc1ccccc1)NC(=O)[C@H](CCC(=O)O)NC(=O)[C@H](C)NC(=O)[C@H](CC(C)C)NC(=O)[C@H](CCCNC(=N)N)NC(=O)[C@H](CCC(N)=O)NC(=O)[C@@H](NC(=O)[C@H](C)NC(=O)[C@@H]1CSSC[C@H](NC(=O)[C@H](Cc2c[nH]cn2)NC(=O)[C@H](Cc2c[nH]cn2)NC(=O)[C@H](Cc2c[nH]cn2)NC(=O)CC[C@H](NC(=O)CCCCCCCCCCCCCCCCCCC(=O)O)C(=O)O)C(=O)N[C@@H](CC(N)=O)C(=O)N[C@@H]([C@@H](C)O)C(=O)N[C@@H](C)C(=O)N[C@@H]([C@@H](C)O)C(=O)N1)[C@@H](C)O)C(C)C)C(=O)N[C@@H](CC(C)C)C(=O)N1CCC[C@H]1C(=O)N1CCC[C@H]1C(=O)N[C@H](C(=O)N[C@@H](CC(N)=O)C(=O)N[C@H](C(=O)NCC(=O)N[C@@H](CO)C(=O)N[C@@H](CC(N)=O)C(=O)N[C@H](C(=O)N[C@@H](Cc1ccc(O)cc1)C(N)=O)[C@@H](C)O)C(C)C)[C@@H](C)O [Example 20, N-alpha-[(S)-4-Carboxy-4-(19-carboxynonadecanoylamino)butyryl]-His-His-[His1,Glu14]-pramlintide] ({C20 diacid-γGlu}-HHHCNTATCATQRLAEFLVHSSNNFGPILPPTNVGSNTY-NH2; disulfide 4-9 (inferred); C-terminus assumed) | 0.151 nM | 1.7 h | 0.74 nM | 6 µM (≈ 28.2 µg/mL) | 1 µM (≈ 4.7 µg/mL) | 13 µM (≈ 61.1 µg/mL) | 73 µM (≈ 343 µg/mL) | > 200 µM | > 200 µM | > 200 µM | > 200 µM | – | – | –
CC[C@H](C)[C@H](NC(=O)[C@@H]1CCCN1C(=O)CNC(=O)[C@H](Cc1ccccc1)NC(=O)[C@H](CC(N)=O)NC(=O)[C@H](CC(N)=O)NC(=O)[C@H](CO)NC(=O)[C@H](CO)NC(=O)[C@H](Cc1c[nH]cn1)NC(=O)[C@H](Cc1c[nH]cn1)NC(=O)[C@H](CC(C)C)NC(=O)[C@H](Cc1ccccc1)NC(=O)[C@H](CCC(=O)O)NC(=O)[C@H](C)NC(=O)[C@H](CC(C)C)NC(=O)[C@H](CCCNC(=N)N)NC(=O)[C@H](CCC(N)=O)NC(=O)[C@@H](NC(=O)[C@H](C)NC(=O)[C@@H]1CSSC[C@H](NC(=O)[C@H](CCCNC(=N)N)NC(=O)[C@H](CCC(=O)O)NC(=O)CC[C@H](NC(=O)CCCCCCCCCCCCCCCCCCC(=O)O)C(=O)O)C(=O)N[C@@H](CC(N)=O)C(=O)N[C@@H]([C@@H](C)O)C(=O)N[C@@H](C)C(=O)N[C@@H]([C@@H](C)O)C(=O)N1)[C@@H](C)O)C(=O)N[C@@H](CC(C)C)C(=O)N1CCC[C@H]1C(=O)N1CCC[C@H]1C(=O)N[C@H](C(=O)N[C@@H](CC(N)=O)C(=O)N[C@H](C(=O)NCC(=O)N[C@@H](CO)C(=O)N[C@@H](CC(N)=O)C(=O)N[C@H](C(=O)N[C@@H](Cc1ccc(O)cc1)C(N)=O)[C@@H](C)O)C(C)C)[C@@H](C)O [Example 25, N-alpha-[(S)-4-Carboxy-4-(19-carboxynonadecanoylamino)butyryl]-Glu-[Arg1,Glu14,His17]-pramlintide] ({C20 diacid-γGlu}-ERCNTATCATQRLAEFLHHSSNNFGPILPPTNVGSNTY-NH2; disulfide 3-8 (inferred)) | 0.119 nM | 2.7 h | 0.184 nM | > 200 µM | > 200 µM | > 200 µM | > 200 µM | > 200 µM | > 200 µM | > 200 µM | > 200 µM | > 200 µM | > 200 µM | –
CC[C@H](C)[C@H](NC(=O)[C@@H]1CCCN1C(=O)CNC(=O)[C@H](Cc1ccccc1)NC(=O)[C@H](CC(N)=O)NC(=O)[C@H](CC(N)=O)NC(=O)[C@H](CO)NC(=O)[C@H](CO)NC(=O)[C@H](CCCNC(=N)N)NC(=O)[C@H](Cc1c[nH]cn1)NC(=O)[C@H](CC(C)C)NC(=O)[C@H](Cc1ccccc1)NC(=O)[C@H](CCC(=O)O)NC(=O)[C@H](C)NC(=O)[C@H](CC(C)C)NC(=O)[C@H](CCCNC(=N)N)NC(=O)[C@H](CCC(N)=O)NC(=O)[C@@H](NC(=O)[C@H](C)NC(=O)[C@@H]1CSSC[C@H](NC(=O)[C@H](CCC(=O)O)NC(=O)CC[C@H](NC(=O)CCCCCCCCCCCCCCCCCCC(=O)O)C(=O)O)C(=O)N[C@@H](CC(N)=O)C(=O)N[C@@H]([C@@H](C)O)C(=O)N[C@@H](C)C(=O)N[C@@H]([C@@H](C)O)C(=O)N1)[C@@H](C)O)C(=O)N[C@@H](CC(C)C)C(=O)N1CCC[C@H]1C(=O)N1CCC[C@H]1C(=O)N[C@H](C(=O)N[C@@H](CC(N)=O)C(=O)N[C@H](C(=O)NCC(=O)N[C@@H](CO)C(=O)N[C@@H](CC(N)=O)C(=O)N[C@H](C(=O)N[C@@H](Cc1ccc(O)cc1)C(N)=O)[C@@H](C)O)C(C)C)[C@@H](C)O [Example 30, N-alpha-[(S)-4-Carboxy-4-(19-carboxynonadecanoylamino)butyryl]-[Glu1,Glu14,His17,Arg18]-pramlintide] ({C20 diacid-γGlu}-ECNTATCATQRLAEFLHRSSNNFGPILPPTNVGSNTY-NH2; disulfide 2-7 (inferred)) | 0.174 nM | 4.7 h | 0.753 nM | > 200 µM | > 200 µM | > 200 µM | > 200 µM | > 200 µM | > 200 µM | > 200 µM | 69 µM (≈ 309 µg/mL) | > 200 µM | > 200 µM | –

— patent US8722849B2, “Polypeptides” (Novo Nordisk A/S, priority 2011, dated 2014)
